# ChEMBL document CHEMBL1144263, “Synthesis and acetylcholinesterase inhibition of derivatives of huperzine B” (Bioorg Med Chem Lett, 2005)
# Columns and labels:
# Acetylcholinesterase = target: T1, Acetylcholinesterase (Rattus norvegicus, UniProt P37136); assay: Inhibitory concentration against acetylcholinesterase from rat cortex homogenate by ellman method was determined
# T1 sequence (P37136 whole entry): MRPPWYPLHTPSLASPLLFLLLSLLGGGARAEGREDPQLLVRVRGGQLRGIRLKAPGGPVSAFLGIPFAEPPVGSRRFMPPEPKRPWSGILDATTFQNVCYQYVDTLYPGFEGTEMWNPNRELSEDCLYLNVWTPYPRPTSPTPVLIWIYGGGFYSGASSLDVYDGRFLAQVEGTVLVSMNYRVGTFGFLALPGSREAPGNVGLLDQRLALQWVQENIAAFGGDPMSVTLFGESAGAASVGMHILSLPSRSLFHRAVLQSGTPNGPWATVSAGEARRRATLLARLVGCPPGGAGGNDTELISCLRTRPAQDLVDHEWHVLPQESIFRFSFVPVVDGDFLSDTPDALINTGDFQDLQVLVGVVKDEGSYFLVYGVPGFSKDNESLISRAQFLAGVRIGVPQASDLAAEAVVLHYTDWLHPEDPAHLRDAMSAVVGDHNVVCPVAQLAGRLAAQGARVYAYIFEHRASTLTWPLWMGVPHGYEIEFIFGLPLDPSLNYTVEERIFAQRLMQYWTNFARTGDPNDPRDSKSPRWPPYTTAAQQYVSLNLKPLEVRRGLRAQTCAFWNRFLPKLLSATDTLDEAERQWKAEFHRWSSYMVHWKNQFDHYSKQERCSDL
# [1] = target: Acetylcholinesterase and butyrylcholinesterase (AChE and BChE) (Rattus norvegicus) (UniProt P37136+Q9JKC1); assay: Ratio of inhibitory concentration for AChE and BChE; type: protein assay
# Butyrylcholinesterase = Butyrylcholinesterase (Rattus norvegicus, UniProt Q9JKC1); assay: Inhibitory concentration against butyrylcholinesterase from rat serum
# Butyrylcholinesterase, sequence (Q9JKC1 whole entry): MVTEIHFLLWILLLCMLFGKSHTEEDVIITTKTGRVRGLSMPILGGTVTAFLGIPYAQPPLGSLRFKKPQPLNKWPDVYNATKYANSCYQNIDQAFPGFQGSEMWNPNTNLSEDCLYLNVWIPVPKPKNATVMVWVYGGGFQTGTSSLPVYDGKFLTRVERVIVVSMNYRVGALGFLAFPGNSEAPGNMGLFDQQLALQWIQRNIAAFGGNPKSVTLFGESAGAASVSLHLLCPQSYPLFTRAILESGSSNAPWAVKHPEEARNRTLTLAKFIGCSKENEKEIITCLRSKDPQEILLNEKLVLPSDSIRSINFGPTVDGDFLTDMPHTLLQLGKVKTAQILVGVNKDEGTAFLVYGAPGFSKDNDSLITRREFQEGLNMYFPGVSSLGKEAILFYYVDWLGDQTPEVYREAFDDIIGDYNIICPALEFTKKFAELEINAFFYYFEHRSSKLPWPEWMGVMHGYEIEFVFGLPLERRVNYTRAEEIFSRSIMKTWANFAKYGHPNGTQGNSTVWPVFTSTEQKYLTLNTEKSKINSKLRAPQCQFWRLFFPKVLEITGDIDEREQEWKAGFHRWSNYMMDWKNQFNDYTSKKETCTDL
# Acetylcholinesterase and butyrylcholinesterase (AChE and BChE) (Rattus norvegicus), sequence (Q9JKC1 1-597, one chain of several): as the sequence (Q9JKC1 whole entry) above
SMILES,IC50 (Acetylcholinesterase),Selectivity [1],IC50 (Butyrylcholinesterase)
CC1=C[C@H]2Cc3[nH]c(=O)ccc3[C@@]3(C1)[C@@H]2CCCN3CCN(Cc1ccccc1)c1ccccc1,> 54 µM,–,–
CC1=C[C@H]2Cc3nc(O)ccc3[C@@]3(C1)[C@@H]2CCCN3CCN(C)CCCc1ccccc1,9.53 µM,–,–
CC1=C[C@H]2Cc3[nH]c(=O)ccc3[C@@]3(C1)[C@@H]2CCCN3C(=O)CN1CCN(CC(=O)N2CCC[C@@H]3[C@H]4C=C(C)C[C@]32c2ccc(=O)[nH]c2C4)CC1,1.17 µM,> 157,> 184 µM
CC1=C[C@H]2Cc3nc(O)ccc3[C@@]3(C1)[C@@H]2CCCN3CCN(C)CCc1ccccc1,20.7 µM,–,–
CC1=C[C@H]2Cc3nc(O)ccc3[C@@]3(C1)[C@@H]2CCCN3CCN(C)Cc1ccccc1,66.5 µM,–,–
CC1=C[C@H]2Cc3nc(O)ccc3[C@@]3(C1)[C@@H]2CCCN3C(=O)N1CCN(Cc2cccnc2)CC1,38.1 µM,–,–
CC1=C[C@H]2Cc3nc(O)ccc3[C@@]3(C1)[C@@H]2CCCN3CCN1CCN(Cc2cccnc2)CC1,26.7 µM,–,–
CC1=CC2Cc3[nH]c(=O)ccc3[C@@]3(C1)[C@@H]2CCCN3C(=O)CN1CCN(Cc2ccc([N+](=O)[O-])cc2)CC1,5.58 µM,–,–
CC1=CC2Cc3[nH]c(=O)ccc3[C@@]3(C1)[C@@H]2CCCN3CCN1CCN(CC[N+]2(C(=O)CN)CCC[C@@H]3C4C=C(C)C[C@]32c2ccc(=O)[nH]c2C4)CC1 (stereo partly drawn),0.407 µM,472,192 µM
COc1ccc(CN2CCN(CN3CCC[C@@H]4[C@H]5C=C(C)C[C@]43c3ccc(O)nc3C5)CC2)cc1,10.3 µM,–,–
CC1=C[C@H]2Cc3[nH]c(=O)ccc3[C@@]3(C1)[C@@H]2CCCN3C(=O)CN1CCCN(CC(=O)N2CCC[C@@H]3[C@H]4C=C(C)C[C@]32c2ccc(=O)[nH]c2C4)CC1,0.114 µM,1500,171 µM
CC1=C[C@H]2Cc3[nH]c(=O)ccc3[C@@]3(C1)[C@@H]2CCCN3C(=O)CN(C)Cc1ccccc1,50.7 µM,–,–
CC1=C[C@H]2Cc3[nH]c(=O)ccc3[C@@]3(C1)NCCC[C@H]23,–,–,157 µM
CC1=CC2Cc3[nH]c(=O)ccc3[C@@]3(C1)[C@@H]2CCCN3C(=O)CN(C)CCc1ccccc1,23.5 µM,–,–
COc1ccc(CN2CCN(CC(=O)N3CCC[C@@H]4C5C=C(C)C[C@]43c3ccc(=O)[nH]c3C5)CC2)cc1,5.75 µM,–,–
CC1=C[C@H]2Cc3nc(O)ccc3[C@@]3(C1)[C@@H]2CCCN3CN1CCN(Cc2ccccc2)CC1,31.6 µM,–,–
CC1=CC2Cc3[nH]c(=O)ccc3[C@@]3(C1)[C@@H]2CCCN3C(=O)CN(C)CCCc1ccccc1,6.19 µM,–,–
CC1=CC2Cc3[nH]c(=O)ccc3[C@@]3(C1)[C@@H]2CCCN3C(=O)CN1CCN(Cc2ccccc2)CC1,33.3 µM,–,–
CC1=C[C@H]2Cc3[nH]c(=O)ccc3[C@@]3(C1)[C@@H]2CCCN3CCN1CCCN(CCN2CCC[C@@H]3[C@H]4C=C(C)C[C@]32c2ccc(=O)[nH]c2C4)CC1,0.218 µM,573,125 µM
CC1=C[C@H]2Cc3nc(O)ccc3[C@@]3(C1)[C@@H]2CCCN3C(=O)CN(Cc1ccccc1)c1ccccc1,> 52 µM,–,–
